In patent publication US10383861B2, “3-(1H-pyrrolo[2,3-C]pyridin-2-yl)-1H-pyrazolo[3,4-C]pyridines and therapeutic uses thereof” (Samumed, LLC, priority 2015, dated 2019):

How the values were obtained:
Type in all cases: cell-based
[1] = tested on: primary human mesenchymal stem cells (hMSCs); experiment: Induction of chondrogenesis in hMSCs (nodule count, Rhodamine B/Nile Red); conditions: 6 days; for EC50: concentration required to induce 50% levels of chondrogenesis vs TGF-β3, read-out: Conc (nM) of 50% TGF-β3 activity; for Emax: relative to TGF-β3 (10 ng/mL) positive control, read-out: Max. Activity as % TGF-β3 activity
Text: Representative compounds were screened using primary human mesenchymal stem cells (hMSCs) to determine their ability to induce chondrogenesis (process by which cartilage is developed).
Primary human mesenchymal stem cells (hMSCs) were purchased from Lonza (Walkersville, Md.) and expanded in Mesenchymal Stem Cell Growth Media (Lonza). Cells between passage 3 and 6 were used for the experiments.
To image chondrogenic nodules, the cells were fixed using 4% formaldehyde (Electron Microscopy Sciences), and stained with 2 μg/mL Rhodamine B (Sigma-Aldrich) and 20 μM Nile Red (Sigma-Aldrich) [Johnson K., et.al, A Stem Cell-Based Approach to Cartilage Repair, Science, (2012). […] Number of nodules in each well was normalized to the average of 3 DMSO treated wells on the same plate using Excel (Microsoft Inc.). The normalized averages (fold change over DMSO) of 3 replicate wells for each compound concentration were calculated. Due to solubility limitations of some of the compounds, curve fitting was incomplete leading to inaccurate EC50 determinations.
Using TGF-β3 as a positive control, the concentration of representative compounds required to induce 50% levels of chondrogenesis is reported. In addition, the maximum activity of each compound and the respective dose that each compound reached maximum chondrogenesis activity is reported.

SW480 colon cancer cells = experiment: Cell viability assay (CellTiter-Blue) in SW480 colon cancer cells; conditions: Homo sapiens; for EC50: 96 h, SW480 cell viability, four days, CellTiter-Blue; for inhibition at 10 µM: SW480, read-out: percent inhibition at 10 μM
Summary of the method: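 Fluorescence from resazurin reduced to resorufin by metabolically active cells was the read-out, taken after ~3 h with CellTiter-Blue.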

[2] = tested on: primary human fibroblasts derived from IPF patients (LL29 cells); experiment: Inhibition of the fibrotic process: αSMA staining in TGF-β1 treated LL29 fibroblasts; conditions: Fibroblast; for EC50: 96 h, LL29 cells, TGF-β1 20 ng/mL, 4 days, % αSMA positive cells; for inhibition at 10 µM: read-out: percent inhibition at 10 μM
Summary of the method: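 IPF-patient-derived LL29 lung fibroblasts in F12 with 1% FBS, stimulated with TGF-β1 alongside compound; TGF-β1 plus DMSO wells served as controls. After 4 days, nuclei stained with 1 μM SYTOX green for 30 min at room temperature, alongside αSMA staining.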

Wnt activity = Wnt activity screening assay, Sp5-Luc reporter gene in SW480 cells; conditions: Homo sapiens; for EC50: Sp5-Luc reporter, SW480 cells, overnight incubation
Summary of the method: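 SW480 cells stably transduced with lentiviral Sp5 promoter (eight TCF/LEF sites)-firefly luciferase, plated at 4,000 cells/well in 1% FBS medium and incubated overnight at 37° C. Luminescence read after BrightGlo addition, normalized to DMSO-only cells; EC50 from four-parameter variable-slope nonlinear regression.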

IL-6 = IL-6 inhibition in LPS-stimulated THP-1 cells (HTRF); conditions: Homo sapiens; for EC50: THP-1 cells, LPS 500 ng/mL, 22 hours, IL6 HTRF; for inhibition at 10 µM: THP-1, read-out: percent inhibition at 10 μM
Summary of the method: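 THP-1 cells kept 24 h in 1% FBS medium, treated 2 h at 37 °C, then stimulated with 500 ng/mL LPS for another 22 h. IL-6 measured by HTRF as the 665/620 nm ratio; EC50 from a four-parameter fit normalized to DMSO controls.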

EC50 [1] [nM]	EC50 (SW480 colon cancer cells) [nM]	EC50 (Wnt activity) [nM]	EC50 (IL-6) [nM]	SMILES	Emax [1] [%]	EC50 [2] [nM]	inhibition at 10 µM [2] [%]	inhibition at 10 µM (SW480 colon cancer cells) [%]	inhibition at 10 µM (Wnt activity; SW480, read-out: percent inhibition at 10 μM) [%]	inhibition at 10 µM (IL-6) [%]
–	> 10000	> 10000	> 10000	CS(=O)(=O)NCc1cc(F)cc(-c2cncc3[nH]c(-c4n[nH]c5cnc(-c6cncc(CN7CCCC7)c6)cc45)cc23)c1 [Compound 490, N-(3-Fluoro-5-(2-(5-(5-(pyrrolidin-1-ylmethyl)pyridin-3-yl)-1H-pyrazolo[3,4-c]pyridin-3-yl)-1H-pyrrolo[2,3-c]pyridin-4-yl)benzyl)methanesulfonamide]	8	> 10000	21.4	17.4	8.5	0
2700	2140	914	688	FC1(F)CCN(Cc2cncc(-c3cc4c(-c5cc6c(-c7cccnc7)cncc6[nH]5)n[nH]c4cn3)c2)C1 [Compound 110, 5-(5-((3,3-Difluoropyrrolidin-1-yl)methyl)pyridin-3-yl)-3-(4-(pyridin-3-yl)-1H-pyrrolo[2,3-c]pyridin-2-yl)-1H-pyrazolo[3,4-c]pyridine]	54	534	–	–	–	–
30	5100	2960	1350	Nc1cncc(-c2cc3c(-c4cc5c(N6CCCCC6)cncc5[nH]4)n[nH]c3cn2)c1 [Compound 171, 5-(3-(4-(Piperidin-1-yl)-1H-pyrrolo[2,3-c]pyridin-2-yl)-1H-pyrazolo[3,4-c]pyridin-5-yl)pyridin-3-amine]	94	2640	–	–	–	–
10	> 10000	3730	1060	CCNCc1cncc(-c2cc3c(-c4cc5c(-c6cccnc6)cncc5[nH]4)n[nH]c3cn2)c1 [Compound 90, N-((5-(3-(4-(Pyridin-3-yl)-1H-pyrrolo[2,3-c]pyridin-2-yl)-1H-pyrazolo[3,4-c]pyridin-5-yl)pyridin-3-yl)methyl)ethanamine]	68	> 10000	0	13	–	–

The remaining lines, values behind:

SMILES	EC50 [1] [nM]	EC50 (SW480 colon cancer cells) [nM]	EC50 (Wnt activity) [nM]	EC50 (IL-6) [nM]	Emax [1] [%]	EC50 [2] [nM]	inhibition at 10 µM [2] [%]	inhibition at 10 µM (SW480 colon cancer cells) [%]	inhibition at 10 µM (Wnt activity; SW480, read-out: percent inhibition at 10 μM) [%]	inhibition at 10 µM (IL-6) [%]
Fc1ccc(-c2cncc3[nH]c(-c4n[nH]c5cnc(-c6cncnc6)cc45)cc23)cc1 [Compound 55, 3-(4-(4-Fluorophenyl)-1H-pyrrolo[2,3-c]pyridin-2-yl)-5-(pyrimidin-5-yl)-1H-pyrazolo[3,4-c]pyridine]	900	264	555	975	81	> 10000	56.4	–	–	–
Fc1cccc(-c2cncc3[nH]c(-c4n[nH]c5cnc(-c6cncnc6)cc45)cc23)c1 [Compound 27, 3-(4-(3-Fluorophenyl)-1H-pyrrolo[2,3-c]pyridin-2-yl)-5-(pyrimidin-5-yl)-1H-pyrazolo[3,4-c]pyridine]	10	1100	584	3060	56	432	–	–	–	–
Fc1cccc(-c2cncc3[nH]c(-c4n[nH]c5cnc(-c6cccnc6)cc45)cc23)c1 [Compound 4, 3-(4-(3-Fluorophenyl)-1H-pyrrolo[2,3-c]pyridin-2-yl)-5-(pyridin-3-yl)-1H-pyrazolo[3,4-c]pyridine]	2700	734	890	> 10000	64	211	–	–	–	26.8
Nc1cncc(-c2cc3c(-c4cc5c(-c6ccccc6F)cncc5[nH]4)n[nH]c3cn2)c1 [Compound 59, 5-(3-(4-(2-Fluorophenyl)-1H-pyrrolo[2,3-c]pyridin-2-yl)-1H-pyrazolo[3,4-c]pyridin-5-yl)pyridin-3-amine]	–	3400	1630	3610	16	1770	–	–	–	–
